In PubChem BioAssay (NCI) one finds TGI and GI50 data, which are given here for eleven compounds.

“And” between values parts separate entries of the source, which are not always exact repeats. Equal entries are not always repeated.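 Assay format: 96-well plates, 48-hour exposure. GI50 is the concentration that inhibits growth by half. TGI: total growth inhibition.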 Some results are limits rather than exact numbers.

Among the test systems are CAKI-1 renal; HOP-62 NSCLC; KM12 colon; MOLT-4 leukemia; NCI-H460 lung; NCI-H522 lung; SF-539 CNS; SK-OV-3 ovarian; SN12C renal; HCC-2998 colon.
Common to all, as to test: growth of human tumour cells (NCI), 48 h

Take `O=[N+]([O-])c1nccn1CC(O)c1ccccc1` (stereo not drawn): the TGI in the test with CAKI-1 renal, with HOP-62 NSCLC, in the test on KM12 colon, in the test on MOLT-4 leukemia, in the test with NCI-H460 lung and in the test on NCI-H522 lung was over 100 µM each time. Moreover, the TGI with SF-539 CNS, in the test on SK-OV-3 ovarian and in the test with SN12C renal was over 100 µM in each case.
As for `Oc1ccccc1-c1nn(CNc2ccc(Cl)cc2)c(=S)o1`, the GI50 in the test with CAKI-1 renal is 3.71 µM; in the test with HOP-62 NSCLC, over 100 µM; in the test on KM12 colon, 11.7 µM; with MOLT-4 leukemia it was 20.7 µM; in the test with NCI-H460 lung, 25.7 µM; in the test with NCI-H522 lung, over 100 µM. Also, the GI50 is 23.8 µM in the test with SF-539 CNS, over 100 µM with SK-OV-3 ovarian and 75.8 µM in the test on SN12C renal. Besides, the TGI in the test with CAKI-1 renal is over 100 µM; with HOP-62 NSCLC, over 100 µM; in the test on KM12 colon it was over 100 µM; with MOLT-4 leukemia, 74 µM; with NCI-H460 lung, over 100 µM; with NCI-H522 lung it was over 100 µM. Besides, the TGI in the test on SF-539 CNS, with SK-OV-3 ovarian and with SN12C renal was over 100 µM each time.
As for `O=C(CC1(O)C(=O)Nc2c(Cl)cc(Cl)cc21)c1ccccc1` (stereo not drawn), the TGI in the test on CAKI-1 renal, in the test on MOLT-4 leukemia, in the test on NCI-H460 lung, with NCI-H522 lung, with SF-539 CNS and with SK-OV-3 ovarian was over 100 µM throughout. The TGI with SN12C renal is over 100 µM.
Consider `c1ccc(SC(Sc2ccccc2)=C2CCC2)cc1`, for which the TGI with CAKI-1 renal, with HOP-62 NSCLC, in the test with KM12 colon, in the test on MOLT-4 leukemia, with NCI-H460 lung and with NCI-H522 lung was over 100 µM throughout. Also, the TGI in the test with SF-539 CNS, in the test on SK-OV-3 ovarian and with SN12C renal was over 100 µM each time.
For the compound `COc1ccc(/C=C/c2cc(OC)c(OC(C)=O)c(OC)c2)cc1`, the TGI in the test with HCC-2998 colon is 39 µM; in the test with HOP-62 NSCLC, 73.7 µM; with MOLT-4 leukemia, 95.9 µM; with NCI-H460 lung, 60.4 µM; with NCI-H522 lung, 46.1 µM; with SK-OV-3 ovarian it was over 100 µM. For the same compound, the TGI in the test with SN12C renal was 75.2 µM.
In the case of `CCN(CC)CCN(CC)CC.CCN(CC)CCN(CC)CC.[Cu+2].[Cu+2].[O-][Cl+3]([O-])([O-])[O-].[OH3+].[OH3+]`, the GI50 in the test on CAKI-1 renal is over 100 µM; with HOP-62 NSCLC, 22.5 µM; in the test with KM12 colon, 18.2 µM; in the test on MOLT-4 leukemia it was 91.4 µM; in the test on NCI-H460 lung, 15.5 µM; in the test on NCI-H522 lung it was 25.6 µM. Moreover, the GI50 in the test with SF-539 CNS was over 100 µM; with SK-OV-3 ovarian, 13.9 µM; in the test with SN12C renal it was 90.7 µM. Moreover, the TGI was over 100 µM in the test on CAKI-1 renal; 40.3 µM with HOP-62 NSCLC; 34.2 µM with KM12 colon; over 100 µM in the test on MOLT-4 leukemia; 37.6 µM with NCI-H460 lung; 55.2 µM in the test with NCI-H522 lung. Also, the results for the TGI with SF-539 CNS, with SK-OV-3 ovarian and with SN12C renal were over 100 µM, 27.3 µM and over 100 µM, respectively.
As for `Nc1ncc(-c2ccc3ncnc(Nc4cccc(Cl)c4)c3c2)cn1`, the GI50 was 0.0346 µM in the test on CAKI-1 renal; 0.388 µM and 2.98 µM with HOP-62 NSCLC; 4.79 µM in the test with KM12 colon; 0.128 µM in the test with NCI-H522 lung; 0.279 µM and 2.14 µM in the test on SF-539 CNS; 1.82 µM with SN12C renal. In addition, the TGI in the test on HOP-62 NSCLC was over 100 µM; in the test on KM12 colon, over 100 µM; in the test on NCI-H522 lung, 4.95 µM; in the test on SF-539 CNS, over 100 µM; with SN12C renal, over 100 µM.
Take `O=C(O)c1cccc(S(=O)(=O)NCCO)c1`: the TGI in the test with CAKI-1 renal, in the test on HOP-62 NSCLC, with KM12 colon, in the test on MOLT-4 leukemia, with NCI-H460 lung and in the test on NCI-H522 lung was over 100 µM throughout. For the same compound, the TGI in the test with SF-539 CNS, in the test on SK-OV-3 ovarian and with SN12C renal was over 100 µM in each case.
In the case of `Cc1ccc(/C=C/C(=O)c2ccc(Cl)c(Cl)c2)cc1`, the TGI with CAKI-1 renal, in the test on HCC-2998 colon, in the test with HOP-62 NSCLC, in the test on KM12 colon, in the test on MOLT-4 leukemia and in the test with NCI-H460 lung was over 100 µM in each case. The TGI in the test with NCI-H522 lung and in the test with SN12C renal was over 100 µM in each case.
As for `CC(=O)OC12C(C)=C(C)C(=O)N1c1ccccc1N2C(C)=O` (stereo not drawn), the TGI in the test on CAKI-1 renal, with HCC-2998 colon, with HOP-62 NSCLC, with KM12 colon, in the test with MOLT-4 leukemia and in the test on NCI-H460 lung was over 100 µM in each case. The TGI with NCI-H522 lung and in the test on SK-OV-3 ovarian was over 100 µM each time.
With `COc1nc(N)nc2c1ncn2C1CC(O)C(CO)O1` (stereo not drawn), the TGI in the test on CAKI-1 renal, in the test on HOP-62 NSCLC, in the test on KM12 colon, in the test on MOLT-4 leukemia, in the test with NCI-H460 lung and in the test on NCI-H522 lung was over 100 µM each time. The TGI in the test with SF-539 CNS, with SK-OV-3 ovarian and in the test with SN12C renal was over 100 µM each time.
